Assay results reported in ChEMBL document CHEMBL1201862, “PubChem BioAssay data set” (2004).
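Cells were grown in 96-well plates and exposed to each compound for 48 hours at five concentrations; endpoints were interpolated linearly between bracketing concentrations, or set to the highest concentration if not reached. Abbreviation: GI50, concentration required for 50% inhibition of growth.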 Calls of active or inactive are those of the source. No stated cut-off is given here; in the data, active = GI50 up to about 1.1 µM and inactive = higher.

Experiments:
Test in all cases: inhibition of tumour cell growth, NCI panel, 48 h
[1] = test system: NCI-H460
[2] = test system: NCI-H23
[3] = test system: OVCAR-3
[4] = test system: NCI-H226
[5] = test system: UACC-257
[6] = test system: MOLT-4
[7] = test system: OVCAR-8
[8] = test system: HOP-62
[9] = test system: SF-539
[10] = test system: SN12C
[11] = test system: SK-MEL-5
[12] = test system: RPMI-8226
[13] = test system: HCT-116
[14] = test system: COLO 205
[15] = test system: MDA-N
[16] = test system: CCRF-CEM
[17] = test system: OVCAR-5
[18] = test system: SK-MEL-28
[19] = test system: RXF 393
[20] = test system: SF-268

Measured: GI50

COc1ccc(C#CC(=O)O)c(OC)c1
inactive: [1] > 100 µM | [2] > 100 µM | [3] > 100 µM | [4] > 100 µM | [5] > 100 µM | [6] > 100 µM | [7] > 100 µM | [8] > 100 µM | [9] > 100 µM | [10] > 100 µM | [11] > 100 µM | [12] > 100 µM | [13] > 100 µM | [14] > 100 µM | [15] > 100 µM | [16] > 100 µM | [17] > 100 µM | [18] > 100 µM

CC(=O)/C(=C/n1c(=S)[nH]c2ccccc21)C(=O)Nc1ccccc1C
inactive: [1] > 100 µM | [2] > 100 µM | [3] > 100 µM | [4] > 100 µM | [5] > 100 µM | [6] > 100 µM | [7] > 100 µM | [8] > 100 µM | [9] > 100 µM | [10] > 100 µM | [19] > 100 µM | [11] > 100 µM | [13] > 100 µM | [14] > 100 µM | [15] > 100 µM | [20] > 100 µM | [17] > 100 µM | [18] > 100 µM

S=C(Nc1ccc2c(c1)oc1ccccc12)c1cccs1
inactive: [2] > 100 µM | [3] 23 µM | [4] > 100 µM | [5] > 100 µM | [6] > 100 µM | [7] 18.7 µM | [8] 25.4 µM | [9] 26.2 µM | [10] > 100 µM | [19] 27.9 µM | [11] > 100 µM | [13] > 100 µM | [14] > 100 µM | [15] > 100 µM | [20] 38.1 µM | [16] > 100 µM | [17] > 100 µM | [18] > 100 µM

Cc1nn(CN2CCN(C)CC2)c(=S)n1/N=C/c1ccc(-c2ccc(Cl)cc2Cl)o1
inactive: [2] 71.6 µM | [3] 64 µM | [4] 29.4 µM | [5] 66.7 µM | [6] 30.5 µM | [7] 51.3 µM | [8] > 100 µM | [9] 35.9 µM | [10] > 100 µM | [11] 43.3 µM | [13] 74.6 µM | [14] > 100 µM | [15] 50.5 µM | [20] 92.5 µM | [17] > 100 µM | [18] > 100 µM

COc1cc2c(cc1OC)C1[C@@H](c3ccccc3)OCN1CC2 (some centres undefined)
inactive: [1] > 100 µM | [2] > 100 µM | [3] > 100 µM | [4] > 100 µM | [5] > 100 µM | [6] > 100 µM | [7] > 100 µM | [8] > 100 µM | [9] > 100 µM | [10] > 100 µM | [19] > 100 µM | [11] > 96.4 µM | [12] 44.4 µM | [13] > 82.2 µM | [14] 91.2 µM | [20] > 100 µM | [16] > 77.6 µM | [17] > 100 µM | [18] > 100 µM

COc1ccc(N2C(=O)C3c4[nH]c5ccccc5c4C4CCCCC4C3C2=O)cc1 (centres undefined)
inactive: [1] 19.5 µM | [2] 25.8 µM | [3] > 100 µM | [4] 27.4 µM | [5] 27.8 µM | [6] 16.1 µM | [7] 11 µM | [8] 15 µM | [9] 14.5 µM | [10] 25.5 µM | [19] 20.8 µM | [11] 21.7 µM | [12] 32.3 µM | [13] 7.11 µM | [14] 3.94 µM | [20] 8.61 µM | [16] 11.9 µM | [17] > 100 µM | [18] 10.6 µM

O=C(Nc1ccc(Cl)c(Cl)c1)OCCN1c2ccccc2Sc2ccccc21
inactive: [2] > 10 µM | [3] > 10 µM | [5] > 10 µM | [6] > 10 µM | [7] > 10 µM | [8] > 10 µM | [9] > 10 µM | [10] > 10 µM | [11] > 10 µM | [12] > 10 µM | [13] > 10 µM | [14] > 10 µM | [15] > 10 µM | [20] > 10 µM | [16] > 10 µM | [17] > 10 µM | [18] > 10 µM

COCCCNc1c2ccccc2nc2ccccc12
inactive: [1] 1.54 µM | [2] 2.92 µM | [3] 2.47 µM | [5] 2.42 µM | [6] 3.57 µM | [7] 2.68 µM | [8] 3.29 µM | [9] 2.26 µM | [10] 3.24 µM | [19] 3.35 µM | [11] 2.14 µM | [13] 2.59 µM | [14] 2.11 µM | [15] 3.09 µM | [20] 3.75 µM | [16] 5.26 µM | [17] 2.17 µM | [18] 2.44 µM

O=S(=O)(SCc1ccccc1)C(c1ccccc1)c1ccccc1
inactive: [1] 37 µM | [2] 26.5 µM | [3] 29.1 µM | [4] 22.5 µM | [5] 32.9 µM | [6] 3.7 µM | [7] 19.8 µM | [8] > 100 µM | [9] 17.2 µM | [10] 24.1 µM | [19] 21.9 µM | [11] 22.5 µM | [12] 25 µM | [13] 33.4 µM | [14] 19.6 µM | [20] 57.1 µM | [16] 4.21 µM | [17] > 100 µM | [18] 48.3 µM

CCCC(=O)c1c(NOC2OCC(OC(C)=O)C(OC(C)=O)C2OC(C)=O)nc(OC)n(C)c1=O (centres undefined)
inactive: [1] > 100 µM | [2] > 100 µM | [3] > 100 µM | [4] > 100 µM | [5] > 100 µM | [6] > 100 µM | [7] > 100 µM | [8] > 100 µM | [9] > 100 µM | [10] > 100 µM | [19] > 100 µM | [11] > 100 µM | [12] > 100 µM | [13] > 100 µM | [14] > 100 µM | [20] > 100 µM | [16] 3.25 µM | [17] > 100 µM | [18] > 100 µM

CC(C)(O)C1COC2=C1C(=O)c1ccccc1C2=O (centres undefined)
inactive: [1] 54 µM | [2] 18.2 µM | [3] 24.9 µM | [4] 32.5 µM | [5] 71.9 µM | [6] 25.6 µM | [7] 22.5 µM | [9] 43.6 µM | [10] 27.8 µM | [11] 22.3 µM | [12] 44.8 µM | [13] 25.3 µM | [14] 82 µM | [15] 18.6 µM | [20] 21.6 µM | [16] 46.2 µM | [17] 23.7 µM | [18] 23.2 µM
